Test results: BindingDB's records for doi:10.1016/j.ejmech.2012.11.007 (Chungnam National University, 2013)

Assay: Inhibition of IL-5 in mouse pro-B Y16 cells after 48 hrs by WST1 assay

| Compound | IC50 [µM] |
| --- | --- |
| N#Cc1ccc(C(O)/C=C/c2coc3cccc(OCC4CCCCC4)c3c2=O)cc1 (centres undefined) | 6.7 |
| O=c1c(/C=C/C(O)c2ccc([N+](=O)[O-])cc2)coc2cccc(OCC3CCCCC3)c12 (centres undefined) | 7 |
| O=c1c(/C=C/C(O)c2ccc(C(F)(F)F)cc2)coc2cccc(OCC3CCCCC3)c12 (centres undefined) | 13.2 |
| O=c1c(/C=C/C(O)c2ccc(F)cc2)coc2cccc(OCC3CCCCC3)c12 (centres undefined) | 6.4 |
| O=c1c(/C=C/C(O)c2ccc(Cl)cc2)coc2cccc(OCC3CCCCC3)c12 (centres undefined) | 7 |
| CC(C)(C)c1ccc(C(O)/C=C/c2coc3cccc(OCC4CCCCC4)c3c2=O)cc1 (centres undefined) | > 30 |
| Cc1ccc(C(O)/C=C/c2coc3cccc(OCC4CCCCC4)c3c2=O)cc1 (centres undefined) | 15 |
| COc1ccc(C(O)/C=C/c2coc3cccc(OCC4CCCCC4)c3c2=O)cc1 (centres undefined) | 16 |
| O=c1c(/C=C/C(O)c2ccccc2)coc2cccc(OCC3CCCCC3)c12 (centres undefined) | 15 |
| O=c1c(/C=C/C(O)c2ccc(O)cc2)coc2cccc(OCC3CCCCC3)c12 (centres undefined) | 12.5 |
| CC(C)COc1cccc2occ(/C=C/C(O)c3ccc(O)cc3)c(=O)c12 (centres undefined) | > 30 |
| COc1cccc2occ(/C=C/C(O)c3ccc(O)cc3)c(=O)c12 (centres undefined) | > 30 |
| N#Cc1ccc(C(=O)/C=C/c2coc3cccc(OCC4CCCCC4)c3c2=O)cc1 | > 30 |
| O=C(/C=C/c1coc2cccc(OCC3CCCCC3)c2c1=O)c1ccc([N+](=O)[O-])cc1 | > 30 |
| O=C(/C=C/c1coc2cccc(OCC3CCCCC3)c2c1=O)c1ccc(C(F)(F)F)cc1 | > 30 |
| O=C(/C=C/c1coc2cccc(OCC3CCCCC3)c2c1=O)c1ccc(F)cc1 | > 30 |
| O=C(/C=C/c1coc2cccc(OCC3CCCCC3)c2c1=O)c1ccc(Cl)cc1 | > 30 |
| CC(C)(C)c1ccc(C(=O)/C=C/c2coc3cccc(OCC4CCCCC4)c3c2=O)cc1 | 18.1 |
| Cc1ccc(C(=O)/C=C/c2coc3cccc(OCC4CCCCC4)c3c2=O)cc1 | 25.1 |
| COc1ccc(C(=O)/C=C/c2coc3cccc(OCC4CCCCC4)c3c2=O)cc1 | > 30 |
| O=C(/C=C/c1coc2cccc(OCC3CCCCC3)c2c1=O)c1ccccc1 | > 30 |
| O=C(/C=C/c1coc2cccc(OCC3CCCCC3)c2c1=O)c1ccc(O)cc1 | 16.2 |
| CC(C)COc1cccc2occ(/C=C/C(=O)c3ccc(O)cc3)c(=O)c12 | 19.1 |
| COc1cccc2occ(/C=C/C(=O)c3ccc(O)cc3)c(=O)c12 | > 30 |
